Assay results taken from US20170183318A1, “AMIDE COMPOUNDS, METHODS FOR PREPARATION, AND USE THEREOF AS AGENTS FOR THE TREATMENT AND PREVENTION OF DISEASES CAUSED BY RNA- AND/OR DNA-CONTAINING VIRUSES, AND CONCOMITANT DISEASES” (OBSCHESTVO S OGRANICHENNOI OTVETSTVENNOSTIYU …, priority 2014, published 2017).
Read-outs that look alike come from different tables or passages of the source. Starred links: 1 amine or outer side, 2 acyl side, 3 side chain; linkers in the order of their positions; H or OH if unused. Non-standard residues stand in square brackets, D forms with d. Residues, ends and D or L forms follow the SMILES beside them. ξ: configuration not given here. Glutaryl = O=C(CCCC(=O)[*:2])[*:1]; ξH = NC(Cc1c[nH]cn1)C(=O)O

Legend:
Staphylococcus aureus = experiment: Murine model of staphylococcal pneumonia (bacterial growth from lung imprints); format: in vivo, outbred mice; conditions: reference drug, intravenously, single dose of 20 mg/kg; lung imprints; control 82.5
Experimental: The efficiency of the compounds was evaluated in outbred mice (females) infected with Staphylococcus aureus (mouse-adapted strain). The administration of the compounds was started 5 days before infection, orally at doses of 15 and 30 mg/kg in a volume of 0.2 mL. On day 5, the mice were infected intranasally under brief ether anesthesia by administration of Staphylococcus aureus at a dose of 10^9 CFU in a volume of 0.05 mL. One hour after infection, the administration of the compounds to the mice was continued at the above-indicated doses for additional 2 days. The reference drug was ampicillin administered intravenously at a single dose of 20 mg/kg. The control was mice infected with Staphylococcus aureus intranasally and treated with PBS. The mice were sacrificed two days after, the breast was dissected, and lung imprints were made in Petri dishes with Columbia agar. After incubation for 24 hours at 30° C., the presence (or absence) of Staphylococcus aureus bacterial growth was fixed in comparison with the control. The intensity of bacterial growth was evaluated in scores and expressed in %.

human virus hRSV = experiment: Antiviral activity against mouse-adapted RS virus (body weight; viral titer in lungs titrated in Hep-2 cells); format: in vivo, mice; conditions: for hRSV in the lungs of mice, Day 5, lg / hRSV in the lungs of mice, Day 7, lg: 10% lung suspension titrated in Hep-2 cells (TCID); for hRSV in the lungs of mice, Day 5, lg / Body weight of the mice on day 5 after infection with hRSV (M ± SD) / hRSV in the lungs of mice, Day 7, lg / Body weight of the mice on day 7 after infection with hRSV (M ± SD): compounds 30 mg/kg, Ribavirin 40 mg/kg; for Body weight of the mice on day 5 after infection with hRSV (M ± SD) / Body weight of the mice on day 7 after infection with hRSV (M ± SD): orally once daily for 5 days, n = 6; for log reduction at 30 mg/kg: human respiratory syncytial virus, HEp-2, po
Experimental: Antiviral effectiveness of the chemical compounds against RSV in an experimental murine model in vivo was determined for human virus hRSV that was previously adapted to the growth in mouse lungs. The animals were infected with the virus at a dose of 0.5 log TCID50 intranasally under brief ether anesthesia in a volume of 0.05 ml/mouse. The studied compounds were administered orally once daily for 5 days according to the treatment regimen at a dose of 30 mg/kg. The first administration was made 24 hours after infection. Normal saline solution was administered to mice as placebo. Intact animals served as a negative control and were hold in a separate room under the same conditions as the experimental animals. Each experimental group comprised 12 animals.
The antiviral activity of the studied compounds was determined by the efficiency in the prevention of weight loss and by suppression of the reproduction of hRSV in the mouse lungs by measuring a viral titer in the experimental groups relative to the control on days 5 and 7 after infection.
In addition, the therapeutic action of the compounds of general formula I was determined by their ability to suppress the reproduction of hRSV in the mouse lungs on days 5 and 7 after infection. The viral titer was determined by the titration of a 10% lung suspension in Hep-2 cell culture. The result was registered 2 days after the incubation at 37° C. by TCID.

[1] = test system: human respiratory syncytial virus (strain A2); experiment: Antiviral activity against RS virus in a murine model of suppressed immune system (lung edema); format: in vivo; conditions: Balb/c mice, cyclophosphan-suppressed, RS-virus pneumonia; 30 mg/kg once daily for 5 days; M ± SD, n = 5; scores from possible 4
Experimental: Antiviral activity of the chemical compounds against human respiratory syncytial virus (strain A2, an infectious titer of 5×10^6 TCID50/mL) was assessed in a Balb/c murine model of viral pneumonia. The virus was inoculated to animals intranasally in a volume of 50 μL under brief ether anesthesia. The immune response in animals to RS virus was suppressed by intraperitoneal administration of cyclophosphan at a dose of 100 mg/kg 5 days before infection. The studied compounds were administered according to the treatment regimen once daily at a dose of 30 mg/kg for 5 days, starting 24 hours after infection. The activity of the compounds was determined by a reduction in edema of the lung infected with respiratory syncytial virus, compared to the control, on day 5 after infection.

[2] = test system: herpes simplex virus belonging to antigenic type 2; experiment: Murine model of experimental herpetic meningoencephalitis (mortality); format: in vivo, white outbred mice; conditions: Mus musculus, po, 336 h
Experimental: In the study, herpes simplex virus belonging to antigenic type 2 was used. White outbred mice weighing 7-8 g were infected i/c (intracerebrally) in a volume of 0.05 ml/mouse comprising a dose of 10LD50. The infectious dose of the virus that caused 100% mortality in mice was 10LD50. Each experimental group comprised 20 mice. Intact animals served as control and were hold in a separate room under the same conditions as the experimental animals. The antiviral activity of the compounds of general formula I was studied by oral administration of the compounds to infected mice once daily at a dose of 30 mg/kg/mouse 24, 48, 72, 96, and 120 hours after infection of the animals with the virus. The mice of the control group were administered placebo (0.2 mL of physiological solution) under the same conditions. The animals were monitored for 14 days after infection by registration the mouse death in the groups.
Each animal was subjected to once-daily observation. The observation included the assessment of general behavior and body condition of animals. The animals were handled according to the International Standards.
The activity of the compounds was evaluated by comparing mortality rates in the groups of animals administered a preparation and placebo.

[3] = Rat model of nasopharyngitis induced by formalin (nasal mucosa changes, cell elements in nasal lavage); format: in vivo; conditions: Wistar rats, 18 mg/kg for 3 days; for Mucous membrane of nasal passages: Without changes (number of animals): number of animals out of n = 10, control 0 of 20; for Mucous membrane of nasal passages: Discharge mucus from the nasal passages (number of animals): number of animals out of n = 10, control 20 of 20
Experimental: Nasopharyngitis was induced by intranasal administration of formalin to each nasal passage of rats.
The administration of formalin to the nasal passages of rats leads to the dissemination of inflammation to adjacent tissues, resulting in a clinical pattern similar to the symptoms of nasopharyngitis in a human.
After an acclimatization period, the following groups were formed: • intact animals administered intragastrically a physiological solution in an amount of 0.2 ml, without induction of nasopharyngitis; • a control group consisted of animals administered intragastrically a physiological solution in an amount of 0.2 ml for 3 days after induction of nasopharyngitis; and • animals administered the studied compounds at a dose of 18 mg/kg for 3 days after induction of nasopharyngitis.
Clinical observation of each animal was performed every day at least twice daily.
The caused pathology was characterized by hyperplasia, increased number of caliciform cells, pronounced infiltration of mononuclear cells and leucocytes, and mucus hyperproduction by submucosal glands.
After euthanasia, the inflammation pattern in the nasal passages and throat was studied in each group of animals. The nasal passages were washed with 5 mL of physiological solution and the score of cell elements were counted in 1 μL.

[4] = test system: Coxsackie A2 virus (strain HCXV A2); experiment: Antiviral activity against Coxsackie virus in vivo (mortality and life expectancy of infected mice); conditions: for inhibition in vivo at 30 mg/kg / mortality at 30 mg/kg: Mus musculus, po; for inhibition in vivo at 30 mg/kg: 168 h, vs virus control, read-out: Protective index (%); for inhibition in vivo at 30 mg/kg / Average life expectancy (days), Compared with control / Average life expectancy (days), Relative: 30 mg/kg orally once daily for 7 days; for mortality at 30 mg/kg: 360 h, read-out: Total mortality, %; for Average life expectancy (days), Compared with control: difference vs virus control; for Average life expectancy (days), Relative: mice infected with 10LD50 HCXV A2
Experimental: In the study a trypsin-dependent strain HCXV A2 was used, previously adapted and causing death in mice from Coxsackie virus infection.
The experiment was carried out in white mice weighing 6 to 7 g. The animals were infected intramuscularly with a dose of 0.1 mL/mouse. The used infectious dose causing mortality in mice was 10LD50.
The ability of compounds to provide a therapeutic effect was determined by the mortality rate of HCXV A2 virus-infected mice in the experimental group relative to the group of untreated animals.
The studied compounds and placebo were administered orally according to the treatment regimen. Normal saline solution was administered to mice as placebo. Intact animals served as a negative control and were hold in a separate room under the same conditions as the experimental animals.
For the experiment, groups were formed with 14-15 animals each. Compounds were administered at a dose of 30 mg/kg of body weight. The studied compounds were administered orally once daily for 7 days (first administration was made 24 hours after infection). The animals were monitored for 15 days during which the animals were weighed and the mortality rate was registered every day.

[5] = Solubility in water noted for the isolated product; format: physicochemical; conditions: qualitative remark on the isolated product
[6] = 120 h, read-out: Suppression of the reproduction of hRSV in the lungs of mice, Day 5, Δlg
[7] = 168 h, read-out: Suppression of the reproduction of hRSV in the lungs of mice, Day 7, Δlg

SMILES | Bacterial growth, in % (Staphylococcus aureus) | hRSV in the lungs of mice, Day 5, lg (human virus hRSV) | Body weight of the mice on day 5 after infection with hRSV (M ± SD) (human virus hRSV) | hRSV in the lungs of mice, Day 7, lg (human virus hRSV) | Body weight of the mice on day 7 after infection with hRSV (M ± SD) (human virus hRSV) | log reduction at 30 mg/kg (human virus hRSV; [6]) | log reduction at 30 mg/kg (human virus hRSV; [7]) | Degree of lung edema on day 5 after infection, score [1] | mortality at 30 mg/kg [2] | Mucous membrane of nasal passages: Without changes (number of animals) [3] | Mucous membrane of nasal passages: Discharge mucus from the nasal passages (number of animals) [3] | inhibition in vivo at 30 mg/kg [4] | mortality at 30 mg/kg [4] | Average life expectancy (days), Compared with control [4] | Average life expectancy (days), Relative [4] | Solubility in water [5]
CC1(C)S[C@@H]2[C@H](NC(=O)[C@H](N)c3ccccc3)C(=O)N2[C@H]1C(=O)O [Ampicillin, ampicillin, reference compound] | 25 (sporadic colonies (up to 10)) | – | – | – | – | – | – | – | – | – | – | – | – | – | – | –
O=C(O)CCCC(=O)NCCC1CCCNC1 (stereo not shown) [Compound 5] | – | 2.17 ± 0.37 lg | 16.02 ± 0.16 | 0.88 ± 0.31 lg | 17.78 ± 0.26 | 2.43 ± 0.37 | 2.93 ± 0.31 | 1.10 ± 0.19 score | 35% | 5 | 5 | – | – | – | – | –
O=C(O)CCCC(=O)NCCC1CCNCC1 [Compound 7] | – | – | 17.17 ± 0.26 | – | 18.53 ± 0.55 | – | – | – | 20% | 6 | 4 | – | – | – | – | –
CC(C)(CCC(=O)NCCc1cnc[nH]1)C(=O)O [Compound 44] | – | – | – | – | – | – | – | – | 40% | 4 | 6 | 55% | 28.6% | +20.1 days | 32.3 days | –
CC(C)(CCC(=O)O)C(=O)NCCc1cnc[nH]1 [Compound 45] | – | – | – | – | – | – | – | – | – | – | – | – | – | – | – | freely soluble in water
O=C(O)CCC(O)C(=O)NCCc1cnc[nH]1 (stereo not shown) [Compound 67] | – | – | – | – | – | – | – | – | – | – | – | 50% | 35.7% | +16.2 days | 27.0 days | freely soluble in water
O=C(O)CCCNC(=O)CCc1cnc[nH]1 [Compound 68] | – | – | – | – | – | – | – | – | 30% | 3 | 7 | – | – | – | – | freely soluble in water
O=C(O)CCCC(=O)NCCc1cocn1 [Compound 124] | – | 2.46 ± 0.22 lg | 16.43 ± 0.26 | 0.83 ± 0.37 lg | 16.37 ± 0.43 | 2.14 ± 0.22 | 2.97 ± 0.37 | – | 40% | 7 | 3 | – | – | – | – | –
NS(=O)(=O)CCC(=O)NCCc1c[nH]cn1 [Compound 145] | – | – | – | – | – | – | – | – | – | – | – | – | – | – | – | freely soluble in water
COC(=O)C(CO)NC(=O)C(Cc1cnc[nH]1)NC(=O)CCCC(=O)O (stereo not drawn) [Compound 149] (Glutaryl-His-Ser-OMe; configuration not given here) | – | 2.6 ± 0.1 lg | 15.44 ± 0.31 | 2.3 ± 0.4 lg | 17.32 ± 0.59 | 1.9 ± 0.1 | 1.4 ± 0.4 | – | 25% | 5 | 5 | 27.2% | 53.3% | +8.9 days | 19.6 days | –
COC(=O)CNC(=O)C(Cc1c[nH]cn1)NC(=O)CCCC(=O)O (stereo not shown) [Compound 193] (Glutaryl-[ξH]-Gly-OMe) | – | – | – | – | – | – | – | 0.80 ± 0.17 score | 25% | 6 | 4 | 45.3% | 40.1% | +14.2 days | 24.9 days | –
